Data set [1] has as its system AHR-dependent transcription of the CYP1A1 gene. Briefly: CYP1A1 induction in mouse macrophages. It counts as cell-based. As for the experimental part:
(§1) Mouse macrophages were also used to test AHR-dependent transcription of the CYP1A1 gene in vivo. Finally, the activity of exemplary compounds of Formula (I) described herein was tested in the human […] cell line U937. The U937 cell line is derived from a patient with diffuse histiocytic lymphoma. Tables 2-4 summarize structure-activity relationship data collected for exemplary, non-limiting compounds of Formula (I) described herein.

Data set [2] in a line: Plasma stability (LCMS/MS). The format is in vitro ADME. The conditions noted are these: incubated in plasma.
Data set [3] is described as follows: Liver microsomal stability (LCMS/MS). It counts as in vitro ADME. The conditions noted are these: in the presence of liver microsomes.
Data set [4] concerns the target T1, aryl hydrocarbon receptor (AHR) (Homo sapiens, UniProt P35869).
T1 sequence (P35869 11-848): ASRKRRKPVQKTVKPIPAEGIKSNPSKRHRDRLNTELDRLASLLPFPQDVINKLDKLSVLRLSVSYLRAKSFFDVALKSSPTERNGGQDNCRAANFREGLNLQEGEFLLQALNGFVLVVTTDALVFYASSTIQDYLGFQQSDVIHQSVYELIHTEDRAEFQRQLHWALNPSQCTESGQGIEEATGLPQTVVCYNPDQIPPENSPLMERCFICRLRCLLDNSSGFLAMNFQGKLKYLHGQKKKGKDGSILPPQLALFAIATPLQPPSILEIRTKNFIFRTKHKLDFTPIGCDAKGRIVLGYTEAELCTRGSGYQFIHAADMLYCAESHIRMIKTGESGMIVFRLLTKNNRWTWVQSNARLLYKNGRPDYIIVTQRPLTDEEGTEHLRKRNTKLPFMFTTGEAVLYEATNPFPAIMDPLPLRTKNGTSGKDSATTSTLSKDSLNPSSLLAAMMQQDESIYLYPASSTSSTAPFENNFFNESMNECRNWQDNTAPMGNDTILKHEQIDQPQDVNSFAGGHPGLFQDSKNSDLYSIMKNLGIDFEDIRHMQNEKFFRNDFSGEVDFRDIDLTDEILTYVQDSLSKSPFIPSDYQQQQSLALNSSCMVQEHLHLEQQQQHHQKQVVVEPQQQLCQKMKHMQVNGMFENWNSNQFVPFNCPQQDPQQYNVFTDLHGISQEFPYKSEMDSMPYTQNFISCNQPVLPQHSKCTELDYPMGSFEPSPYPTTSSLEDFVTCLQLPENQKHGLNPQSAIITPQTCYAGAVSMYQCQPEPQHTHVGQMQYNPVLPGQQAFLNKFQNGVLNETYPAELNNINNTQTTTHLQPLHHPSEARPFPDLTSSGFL
Briefly: XRE-driven luciferase reporter assay, human HepG2. The conditions noted are these: for XRE luciferase Emax (footnote c): Emax defined as fold increase at highest concentration tested (10 μM); for XRE luciferase Emax (fold): fold over vehicle.
Experimental: The Human HepG2 cell line is a human liver cancer cell line, and provide a relevant in vitro AHR activity model. These Hep2G cells have been modified to stably express an AHR-responsive (XRE) firefly luciferase reporter gene to give Hep2G-XRE cells. The expression of luciferase should primarily reflect AHR-dependent transcription controlled by XRE.
Transfected cells were treated with AhR agonist (10^−5-10^−12) for 4.5 h in full medium. Cells were lysed and luciferase was activated using the Luciferase Assay System (Promega). Luminescence signals were measured with a FluroStar Omega microplate reader. Luminescence signals of compound treated groups were normalized to vehicle (DMSO) treated control and plotted as concentration dependent fold changes.

The test system of data set [5] is AHR-dependent transcription of the CYP1A1 gene. Nature of the data set: CYP1A1 induction in human U937 cells. The format is cell-based. The conditions noted are these: Human U937, 1 μM. The method, then: as §1
Where [6] appears, read: XRE luciferase EC50 (footnote a), Human HepG2, EC50 defined as concentration induced 50% of Emax of ITE.
[7] abbreviates: XRE luciferase EC50, Human HepG2, least square curve fitting, >10,000 = does not reach 50% of Emax of ITE at 10 μM (highest concentration tested).

The text below walks through data of patent US12152016B2, “Aryl hydrocarbon receptor modulators and uses thereof” (Beth Israel Deaconess Medical Center, Inc., priority 2018, dated 2024).

On to `O=C(c1cccc(-c2ccccc2)n1)c1c[nH]c2ccccc12` [Compound 113, 1H-indol-3-yl-(6-phenyl-2-pyridyl)methanone], for which the figures for the “CYP1A1 induction (% of ITE ± SEM)” value in data set [1] (50 nM) and in data set [1] (5 μM) were 91 ± 7 % of ITE and 97 ± 9 % of ITE, respectively. Further, in data set [2], the plasma stability entry was “stable”. For the same compound, the liver microsomal stability result in data set [3] is on record as “rapidly metabolized”. Besides, the “XRE luciferase Emax (footnote c)” value in data set [4] (Human HepG2) is on record as “(114)^c fold”. Moreover, the concentration for a half-maximal effect (EC50) in data set [4] (setting [6]) was determined as 12.1 nM; in data set [4] (setting [7]), 12 nM.
For `COC(=O)c1cccc(C(=O)c2c(C)[nH]c3ccccc23)n1` [Compound 144, methyl 6-(2-methyl-1H-indole-3-carbonyl)pyridine-2-carboxylate], the “CYP1A1 induction (% of ITE ± SEM)” value in data set [5] is reported as 29 ± 14 % of ITE; in data set [1] (5 μM) it was 6 ± 2 % of ITE. In data set [4] (Human HepG2), the “XRE luciferase Emax (footnote c)” value is on record as “(22)^c fold”. The EC50 in data set [4] (setting [7]) is greater than 10000 nM.
As to `COC(=O)c1cccc(C(=O)c2n[nH]c3ccccc23)c1` [reference compound], the “CYP1A1 induction (% of ITE ± SEM)” value in data set [5] is 48 ± 6 % of ITE; in data set [1] (50 nM) it was 14 ± 4 % of ITE; in data set [1] (5 μM) it was 90 ± 2 % of ITE. Besides, the “XRE luciferase Emax (fold)” value in data set [4] (Human HepG2) amounted to 117 fold. The same compound yielded an EC50 in data set [4] (setting [7]) of 680 nM.
Regarding `COc1cccc(C(=O)c2c[nH]c3ccccc23)n1` [Compound 5], the “CYP1A1 induction (% of ITE ± SEM)” value in data set [5] is 165 ± 27 % of ITE; in data set [1] (5 nM), 57 ± 22 % of ITE; in data set [1] (50 nM), 168 ± 86 % of ITE; in data set [1] (5 μM), 101 ± 33 % of ITE. In data set [4] (Human HepG2), the “XRE luciferase Emax (fold)” value came out at 48 fold. In data set [4] (setting [7]), the EC50 came to 96 nM.
As for `COc1cccc(C(=O)c2n[nH]c3ccccc23)c1` [reference compound], the entries for the “CYP1A1 induction (% of ITE ± SEM)” value in data set [5], in data set [1] (50 nM) and in data set [1] (5 μM) were 194 ± 18 % of ITE, 1 ± 0.2 % of ITE and 27 ± 3 % of ITE, respectively. Also, the “XRE luciferase Emax (footnote c)” value in data set [4] (Human HepG2) is given as “(87)^c fold”. A half-maximal response in data set [4] (setting [6]) (EC50) required 2000 nM.
In the case of `COc1cccc(C(=O)c2c[nH]c3ccccc23)c1` [Compound 9], the “CYP1A1 induction (% of ITE ± SEM)” value in data set [5] is reported as 101 ± 12 % of ITE; in data set [1] (50 nM) it was 9 ± 5 % of ITE. Moreover, in data set [4] (Human HepG2), the “XRE luciferase Emax (footnote c)” value was “(25)^c fold”. Also, the EC50 in data set [4] (setting [7]) is greater than 10000 nM.
